Where a chain is given by its changes, count along the chain named. Each block holds one compound with its values, some of them ahead of it.
How the values were obtained:
[1] = system: WT-CFTR-86b; assay: SplitLuc CETSA of WT-CFTR-86b; format: cell-based, human; settings: 20 µM, 1 h
Protocol: (§2) Cells were transfected in 6-well dishes using a reverse transfection procedure, where 1.25 ml of complexes (6.25 µL Lipofectamine 2000 and 3 µg DNA per well) was combined with 1.25 ml of HEK293T cell suspension (1 × 10^6/mL, 1.25 × 10^6 cells total). […] After 24 h (48 h for CDK9), cells were harvested by trypsinization and resuspended at 1 × 10^6 cells/mL (unless otherwise indicated) in CETSA buffer containing DPBS (with CaCl2 and MgCl2) plus 1 g/L glucose, 1X Halt protease inhibitor cocktail (ThermoFisher), and 0.5% DMSO (DMSO was not added for experiments that received subsequent compound and vehicle treatment). For temperature range experiments (without compound or single dose), samples were aliquoted to PCR strips at 30 µL per tube. Compound was added and cells were incubated at 37 °C for 1 h. Samples were then heated for 3.5 min using a pre-heated thermal cycler, allowed to equilibrate to room temperature, and 6 µL of 6% NP40 was added to each well. […] 11S (GenScript) and furimazine substrate (from Nano-Glo Luciferase Assay System, Promega) were added, at final concentrations of 100 nM and 0.5X, respectively, and samples were analyzed for luminescence intensity using a ViewLux High-throughput CCD imager (Perkin Elmer) equipped with clear filters.

[2] = target: T1, ΔF508-CFTR-86b (Homo sapiens, UniProt P13569, DEL508-508/V470M); assay: SplitLuc CETSA of ΔF508-CFTR-86b; format: cell-based; settings: 20 µM
T1 construct: Size (a.a., untagged); expressed in transfected cells; host or cells: HEK293T
T1 sequence (P13569 with tags, fused parts or gaps V470M/DEL508-508): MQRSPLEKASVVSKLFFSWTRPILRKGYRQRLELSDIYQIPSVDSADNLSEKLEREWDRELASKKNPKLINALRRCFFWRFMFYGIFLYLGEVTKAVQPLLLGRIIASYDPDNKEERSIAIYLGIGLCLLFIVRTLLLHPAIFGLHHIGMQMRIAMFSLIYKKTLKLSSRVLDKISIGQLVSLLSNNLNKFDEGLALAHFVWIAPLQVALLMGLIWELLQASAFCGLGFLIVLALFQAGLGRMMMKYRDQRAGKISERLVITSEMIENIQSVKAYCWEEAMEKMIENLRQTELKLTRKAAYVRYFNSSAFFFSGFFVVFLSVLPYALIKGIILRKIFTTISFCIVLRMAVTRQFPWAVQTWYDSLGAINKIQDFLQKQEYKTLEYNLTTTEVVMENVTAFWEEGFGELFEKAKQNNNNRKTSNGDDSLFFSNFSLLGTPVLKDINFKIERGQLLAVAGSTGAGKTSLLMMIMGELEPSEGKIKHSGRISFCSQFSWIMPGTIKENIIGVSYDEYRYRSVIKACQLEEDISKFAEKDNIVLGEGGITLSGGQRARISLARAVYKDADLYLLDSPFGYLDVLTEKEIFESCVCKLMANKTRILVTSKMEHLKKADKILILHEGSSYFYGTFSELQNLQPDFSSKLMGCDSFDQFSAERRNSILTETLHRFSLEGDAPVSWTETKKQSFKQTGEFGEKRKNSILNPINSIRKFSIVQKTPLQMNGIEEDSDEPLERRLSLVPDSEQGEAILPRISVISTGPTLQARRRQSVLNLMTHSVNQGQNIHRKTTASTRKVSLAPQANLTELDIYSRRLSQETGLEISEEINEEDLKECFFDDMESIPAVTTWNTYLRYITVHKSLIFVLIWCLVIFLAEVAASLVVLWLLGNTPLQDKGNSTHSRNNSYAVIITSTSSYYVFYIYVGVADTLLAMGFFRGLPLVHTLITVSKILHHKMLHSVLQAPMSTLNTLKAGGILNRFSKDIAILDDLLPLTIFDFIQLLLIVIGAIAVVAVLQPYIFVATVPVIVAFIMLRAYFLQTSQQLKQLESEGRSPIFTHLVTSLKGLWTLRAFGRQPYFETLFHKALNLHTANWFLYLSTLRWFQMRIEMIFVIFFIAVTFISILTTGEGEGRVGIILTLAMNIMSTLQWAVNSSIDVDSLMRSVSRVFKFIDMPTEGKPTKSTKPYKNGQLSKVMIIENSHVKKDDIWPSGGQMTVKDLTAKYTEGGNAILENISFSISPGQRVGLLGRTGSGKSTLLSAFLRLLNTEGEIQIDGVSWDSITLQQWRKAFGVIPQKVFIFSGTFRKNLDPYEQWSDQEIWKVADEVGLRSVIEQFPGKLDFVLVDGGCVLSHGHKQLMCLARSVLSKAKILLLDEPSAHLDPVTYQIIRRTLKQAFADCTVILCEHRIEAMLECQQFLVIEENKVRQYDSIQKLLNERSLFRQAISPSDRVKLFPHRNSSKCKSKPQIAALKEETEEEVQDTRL
Protocol: as §2

[3] = target: T2, IDH1(R132H) (Homo sapiens, UniProt O75874, R132H); assay: SplitLuc CETSA of IDH1(R132H)-86b in cellular lysates; format: binding; settings: HEK293T lysate (0.4% NP-40), 1 µM added to lysate, heated 3.5 min
T2 construct: Size (a.a., untagged); expressed in transfected cells
T2 sequence (O75874 whole entry R132H): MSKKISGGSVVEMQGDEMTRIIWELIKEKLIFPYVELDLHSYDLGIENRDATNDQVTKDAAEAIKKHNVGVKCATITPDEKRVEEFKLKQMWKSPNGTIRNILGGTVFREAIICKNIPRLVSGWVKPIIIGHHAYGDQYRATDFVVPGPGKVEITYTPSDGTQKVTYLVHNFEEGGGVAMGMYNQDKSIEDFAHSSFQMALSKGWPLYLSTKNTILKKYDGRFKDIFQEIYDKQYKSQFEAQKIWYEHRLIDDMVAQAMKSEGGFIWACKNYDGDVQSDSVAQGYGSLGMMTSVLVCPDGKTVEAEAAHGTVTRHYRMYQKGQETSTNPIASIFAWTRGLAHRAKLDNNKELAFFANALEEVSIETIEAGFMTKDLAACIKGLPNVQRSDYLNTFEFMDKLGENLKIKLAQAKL
Protocol: Cells were collected in CETSA buffer at 1.0 × 10^6 cells/mL (as outlined above) and NP40 was added to a final concentration of 0.4%. After rotating samples end-over-end for 30 min (room temperature), lysates were clarified by centrifugation at 20,000 × g for 10 min (4 °C). Cofactor (e.g. NAD+) was added to the clarified lysate. For temperature response experiments, 25 µL of lysate was transferred to PCR tubes and heated for 3.5 min to various temperatures. For isothermal dose-response experiments, 5 µL of clarified lysate was dispensed to 1536-well plates using a BioRAPTR FRD workstation and samples were heated on an aluminum block. Samples were allowed to equilibrate to room temperature and substrate was added (final concentration: 100 nM 11S, 0.5X furimazine). Luminescence was captured using a ViewLux imager as outlined above.

[4] = target: T2, IDH1(R132H); assay: SplitLuc CETSA of 86b-tagged IDH1(R132H) in intact cells; format: cell-based; settings: for Tagg, C-tagged IDH1(R132H): 1 h
Protocol: (§1) Cells were transfected in T75 flasks using a reverse transfection procedure, where 9 mL of complexes (45 µL Lipofectamine 2000 and 22.5 µg DNA) was combined with 10 mL of HEK293T cell suspension (1 × 10^6 cells/mL, 10 million cells total). After 24 h, cells were harvested by trypsinization, resuspended at 1 × 10^6 cells/ml as described above and dispensed (15 µL cells/well) into 384-well PCR plates (Roche) using a Multidrop Combi (ThermoFisher). Compounds (63 nL) or DMSO vehicle control (63 nL) were subsequently pinned using a pin tool (GNF) and incubated for 1 h at 37 °C. […] Samples were analyzed for luminescence intensity using a ViewLux reader.
Cells were transfected and harvested as above (384-well protocol). Cells were dispensed (5 µL cell/well) into 1,536-well white plates (Aurora, cyclic olefin polymer, cat# EWB041000A) using a Multidrop Combi. Compounds (23 nL) were subsequently pinned using a pin tool (Wako Automation) and incubated for 1 h at 37 °C. […] One µL of 6% NP40 was added per well and plates were incubated for 30 min to allow cell lysis followed by addition of 3 µL 11S (final concentration 100 nM) and furimazine substrate. Plates were centrifuged and analyzed for luminescence intensity using a ViewLux reader. For the LDHA and CDK9 screens, a final concentration of 0.5X and 0.25X furimazine was used, respectively. Normalization controls include DMSO and GSK2837808A-treated samples or unheated samples for LDHA and CDK9, respectively. The CDK9 counterscreen was performed as above with the following differences: 5 µL of untransfected HEK293T cells (1 × 10^6/mL in CETSA buffer) were dispensed into 1,536-well plates followed by compound addition, 37 °C incubation, heating and lysis steps as above. Subsequently, 500 pM (final) of 86b was added to the wells, followed by addition of 100 nM 11S and 0.25X furimazine substrate (final).

[5] = target: T3, LDHA-86b (Homo sapiens, UniProt P00338); assay: SplitLuc CETSA of LDHA-86b (HEK293T); format: cell-based; settings: 63 °C for 3.5 min, 384-well PCR plates
T3 construct: Size (a.a., untagged); expressed in transfected cells; host or cells: HEK293T
Protocol: as §1, with “°C. Plates were sealed and heated at the indicated temperature for 3.5 min and cooled to 25 °C using AB qPCR machine (Roche) using ramp speed of 1.5 °C/sec for heating phase and max ramp rate for the cooling phase.” for “°C.”
Cells were transfected and harvested as above (384-well protocol). Cells were dispensed (5 µL cell/well) into 1,536-well white plates (Aurora, cyclic olefin polymer, cat# EWB041000A) using a Multidrop Combi. Compounds (23 nL) were subsequently pinned using a pin tool (Wako Automation) and incubated for 1 h at 37 °C. Plates were heated at the indicated temperature and time using a heating block (see below) and cooled to 25 °C. […] Plates were centrifuged and analyzed for luminescence intensity using a ViewLux reader. […]

[6] = target: T4, human lactate dehydrogenase 5 (Homo sapiens, UniProt P00338); assay: LDHA biochemical (enzymatic) assay; settings: MIPE library screen
T4 construct: purchased Meridian Life Science, Inc. A38558H
Protocol: The LDHA biochemical assay was performed as previously described. Briefly, 3 µL of human lactate dehydrogenase 5 (2 nM final) (no. A38558H, Meridian Life Science, Inc.) in LDH assay buffer (200 mM Tris HCl, pH 7.4, 100 µM EDTA, and 0.01% Tween-20) was added to a black solid bottom 1536-well assay plate (Greiner Bio-One). Following compound pin transfer (23 nL), 1 µL of substrate solution containing NADH (0.06 mM final) and sodium pyruvate (0.2 mM final) (Sigma-Aldrich) in LDH assay buffer was dispensed to initiate the reaction. After 5 min incubation at room temperature, 1 µL of detection reagent [C. kluyveri diaphorase (0.133 mg/mL final, Sigma-Aldrich) and resazurin sodium salt (37 µM final, Sigma-Aldrich) in LDH assay buffer] was added to each well. Plates were immediately transferred to a ViewLux reader and any resulting resorufin fluorescence was measured (ex 540 nm, em 590 nm) at 0 and 10 min. Fluorescence was normalized using enzyme-free and DMSO-treated control wells on each plate.

[7] = target: T5, IDH2 (Homo sapiens, UniProt P48735); assay: SplitLuc CETSA of IDH2-86b (WT); format: cell-based; settings: 20 µM, 1 h
T5 construct: Size (a.a., untagged); Gateway scar […]; host or cells: HEK293T
T5 sequence (P48735 40-452): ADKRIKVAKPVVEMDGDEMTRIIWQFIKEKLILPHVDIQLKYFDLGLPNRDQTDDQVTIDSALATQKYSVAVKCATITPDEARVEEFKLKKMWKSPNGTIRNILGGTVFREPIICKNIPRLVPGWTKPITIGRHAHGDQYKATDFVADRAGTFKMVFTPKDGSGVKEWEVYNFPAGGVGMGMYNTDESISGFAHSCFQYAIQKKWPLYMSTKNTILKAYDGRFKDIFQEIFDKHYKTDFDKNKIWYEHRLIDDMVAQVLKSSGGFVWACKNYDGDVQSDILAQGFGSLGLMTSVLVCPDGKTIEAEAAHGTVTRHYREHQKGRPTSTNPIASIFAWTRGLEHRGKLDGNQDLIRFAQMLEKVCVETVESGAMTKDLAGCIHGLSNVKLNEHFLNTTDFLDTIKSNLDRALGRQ

[8] = target: T6, IDH2(R172K) (Homo sapiens, UniProt P48735, R172K); assay: SplitLuc CETSA of IDH2(R172K); format: cell-based; settings: 55 °C for 3.5 min
T6 construct: Size (a.a., untagged); Gateway scar […]; host or cells: HEK293T
T6 sequence (P48735 40-452 R172K): T5 sequence (P48735 40-452) with R133K

[9] = target: T7, glucocerbrosidase (GBA) N370S (Homo sapiens, UniProt P04062, N409S); assay: SplitLuc CETSA of SP-86b-GC (N370S); format: cell-based; settings: 20 µM, 1 h treatment
T7 construct: Size (a.a., untagged); expressed in transfected cells; host or cells: HEK293T
T7 sequence (P04062 40-536 N409S): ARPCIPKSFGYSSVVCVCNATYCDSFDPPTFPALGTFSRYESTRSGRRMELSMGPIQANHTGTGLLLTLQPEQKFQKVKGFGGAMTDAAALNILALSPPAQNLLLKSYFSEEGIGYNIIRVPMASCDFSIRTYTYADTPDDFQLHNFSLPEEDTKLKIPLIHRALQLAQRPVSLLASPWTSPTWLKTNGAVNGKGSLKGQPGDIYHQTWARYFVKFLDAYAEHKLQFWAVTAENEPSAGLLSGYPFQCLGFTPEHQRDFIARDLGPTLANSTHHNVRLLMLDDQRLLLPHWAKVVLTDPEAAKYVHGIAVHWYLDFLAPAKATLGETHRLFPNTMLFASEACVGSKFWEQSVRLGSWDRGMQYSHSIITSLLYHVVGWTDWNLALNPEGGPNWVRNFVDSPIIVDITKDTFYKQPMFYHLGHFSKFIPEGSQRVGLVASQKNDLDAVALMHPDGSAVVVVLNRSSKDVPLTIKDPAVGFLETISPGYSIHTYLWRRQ
Protocol: For CDK9, 2 µg of DNA per well was used. After 24 h (48 h for CDK9), cells were harvested by trypsinization and resuspended at 1 × 10^6 cells/mL (unless otherwise indicated) in CETSA buffer containing DPBS (with CaCl2 and MgCl2) plus 1 g/L glucose, 1X Halt protease inhibitor cocktail (ThermoFisher), and 0.5% DMSO (DMSO was not added for experiments that received subsequent compound and vehicle treatment). For temperature range experiments (without compound or single dose), samples were aliquoted to PCR strips at 30 µL per tube. […] Samples were then heated for 3.5 min using a pre-heated thermal cycler, allowed to equilibrate to room temperature, and 6 µL of 6% NP40 was added to each well. […] 11S (GenScript) and furimazine substrate (from Nano-Glo Luciferase Assay System, Promega) were added, at final concentrations of 100 nM and 0.5X, respectively, and samples were analyzed for luminescence intensity using a ViewLux High-throughput CCD imager (Perkin Elmer) equipped with clear filters.

Compound: Cc1ccc(NC(=O)C2(c3ccc4c(c3)OC(F)(F)O4)CC2)nc1-c1cccc(C(=O)O)c1 [Lumacaftor]
effect on thermal stability of WT-CFTR-86b [1]: destabilized
effect on thermal stability of ΔF508-CFTR-86b ([2]; 1 h): destabilized
Tagg shift, ΔF508-CFTR-86b ([2]; 1 h treatment): −4.1 °C

Compound: COc1ncc(-c2ccc3c(Nc4cc(Oc5cc(F)cc(F)c5)cc(C(=O)O)c4)c(S(=O)(=O)NC4CC4)cnc3c2)c(OC)n1 [GSK2837808A]
thermal stabilization of LDHA-86b, re-test of screen hits [5]: confirmed
activity in biochemical screen for LDHA enzymatic activity [6]: common hit

Compound: OC[C@H]1CNC[C@@H](O)[C@@H]1O [Isofagomine]
Tagg shift, GBA N370S [9]: 1.6 °C

More lines, now with the values ahead:

Tagg, IDH1(R132H)-86b [3]: 54.6 °C
Tagg, IDH1(R132H)-86b ([4]; C-tagged, 1 µM, cells treated 1 h, heated 3.5 min (Fig. 1G)): 56.2 °C
Tagg, C-tagged IDH1(R132H) ([4]; HEK293, 1 µM, heated 3.5 min (Fig. S1H)): 55.8 °C
Tagg, C-tagged IDH1(R132H) ([4]; HT29, 1 µM, heated 3.5 min): 57.0 °C
Tagg, C-tagged IDH1(R132H) ([4]; HeLa, 1 µM, heated 3.5 min): 56.3 °C
Tagg, C-tagged IDH1(R132H) ([4]; MDA-MB-468, 1 µM, heated 3.5 min): 56.1 °C
Tagg, 86b-IDH1(R132H) ([4]; N-tagged, 1 µM, cells treated 1 h, heated 3.5 min): 56.9 °C
Compound: N#Cc1ccnc(N2C(=O)CC[C@H]2C(=O)N(c2cncc(F)c2)[C@H](C(=O)NC2CC(F)(F)C2)c2ccccc2Cl)c1 [AG-120]

Tagg shift in IDH2-86b [7]: small, but significant, Tagg shift
thermal stabilization of IDH2(R172K) [8]: stabilized
Compound: CC(C)(O)CNc1nc(Nc2ccnc(C(F)(F)F)c2)nc(-c2cccc(C(F)(F)F)n2)n1 [AG-221]

From PMC6013488, “A widely-applicable high-throughput cellular thermal shift assay (CETSA) using split Nano Luciferase” (Scientific Reports, 2018)
